# Assay results published in patent US12655116B2, “Substituted isophthalic acid diamides” (Bayer Aktiengesellschaft, priority 2020, dated 2026).
# Assays:
# ECHCG [1] = assay: Post-emergence herbicidal action against ECHCG; assay type: in vivo, Echinochloa crus-galli; details: dosage 20 g/ha
# Summary of the method: (§1)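 Post-emergence greenhouse test; one-leaf stage, 2–3 wk post-sowing, sandy loam. Foliar spray of WP/EC in water, 600–800 l/ha, +0.2% wetting agent. Visual % action at ~3 wk vs untreated (100% = plants dead).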
# SETVI = assay: Pre-emergence herbicidal action against SETVI; assay type: in vivo, Setaria viridis
# Summary of the method: (§2)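 Herbicidal effect was assessed 3 weeks after treatment by visual comparison with untreated controls, 100% denoting dead plants. Aqueous WP or EC preparations had been applied at 600 to 800 l/ha with 0.2% wetting agent to the soil covering freshly sown seeds.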
# MATIN [2] = assay: Pre-emergence herbicidal action against MATIN; assay type: in vivo, Matricaria inodora; details: Tripleurospermum inodorum, 504 h
# Summary of the method: as §2
# PHBPU [3] = assay: Pre-emergence herbicidal action against PHBPU; assay type: in vivo, Pharbitis purpurea; details: dosage 80 g/ha
# Source text: Seeds of monocotyledonous and dicotyledonous weed plants and crop plants are laid out in sandy loam soil in wood-fiber pots and covered with soil. The compounds of the invention, formulated in the form of wettable powders (WP) or as emulsion concentrates (EC), are then applied to the surface of the covering soil in the form of an aqueous suspension or emulsion at a water application rate equivalent to 600 to 800 l/ha, with addition of 0.2% wetting agent. After the treatment, the pots are placed in a greenhouse and kept under good growth conditions for the trial plants. The damage to the test plants is scored visually after a test period of 3 weeks by comparison with untreated controls (herbicidal activity in percent (%): 100% activity=the plants have died, 0% activity=like control plants). […] The tables below illustrate, in an illustrative manner, the post-emergence herbicidal action of the compounds of the invention, the herbicidal activity being stated in percent.
# AMARE = assay: Pre-emergence herbicidal action against AMARE; assay type: in vivo, Amaranthus retroflexus
# Summary of the method: as §2
# PHBPU [4] = assay: Post-emergence herbicidal action against PHBPU; assay type: in vivo, Pharbitis purpurea; details: Ipomoea purpurea, 504 h
# Summary of the method: as §1
# ECHCG [5] = assay: Pre-emergence herbicidal action against ECHCG; assay type: in vivo, Echinochloa crus-galli; details: 80 g/ha
# Summary of the method: as §2
# ABUTH [6] = assay: Post-emergence herbicidal action against ABUTH; assay type: in vivo, Abutilon theophrasti; details: Abutilon theophrasti, 504 h, visual assessment about 3 weeks after treatment vs untreated controls
# Summary of the method: as §1
# DIGSA [7] = assay: Pre-emergence herbicidal action against DIGSA; assay type: in vivo, Digitaria sanguinalis
# Summary of the method: as §2
# ABUTH [8] = assay: Pre-emergence herbicidal action against ABUTH; assay type: in vivo, Abutilon theophrasti; details: Abutilon theophrasti, 504 h
# Summary of the method: as §2
# DIGSA [9] = assay: Post-emergence herbicidal action against DIGSA; assay type: in vivo, Digitaria sanguinalis; details: Digitaria sanguinalis, 504 h
# Summary of the method: as §1
# VERPE [10] = assay: Post-emergence herbicidal action against VERPE; assay type: in vivo, Veronica persica; details: 20 g/ha
# Summary of the method: as §1
# MATIN [11] = assay: Post-emergence herbicidal action against MATIN; assay type: in vivo, Matricaria inodora; details: Tripleurospermum inodorum, 504 h
# Summary of the method: as §1
# VIOTR [12] = assay: Pre-emergence herbicidal action against VIOTR; assay type: in vivo, Viola tricolor
# Summary of the method: as §2
# VIOTR [13] = assay: Post-emergence herbicidal action against VIOTR; assay type: in vivo, Viola tricolor; details: Viola tricolor, 504 h, 20 g/ha
# Summary of the method: as §1
# VERPE [14] = assay: Pre-emergence herbicidal action against VERPE; assay type: in vivo, Veronica persica
# Summary of the method: as §2
# ALOMY = assay: Pre-emergence herbicidal action against ALOMY; assay type: in vivo, Alopecurus myosuroides; details: 80 g/ha, pre-emergence, scored visually after 3 weeks vs untreated controls (100% = plants have died, 0% = like control plants)
# Summary of the method: as §2
# [15] = 80 g/ha, scored visually after 3 weeks vs untreated controls (100% = plants have died, 0% = like control plants)
smiles,measurement,setting,value
CCNC(=O)c1c(C(F)(F)F)ccc(C(=O)Nc2nnnn2C)c1C1CC1 [Example 1-287],pest or weed control at 20 g/ha,"ECHCG [1]; Echinochloa crus-galli, 504 h",100%
same,pest or weed control at 20 g/ha,"SETVI; Setaria viridis, 504 h, dosage 20 g/ha",90%
same,pest or weed control at 80 g/ha,"SETVI; Setaria viridis, 504 h, dosage 80 g/ha",100%
same,pest or weed control at 20 g/ha,MATIN [2]; dosage 20 g/ha,100%
same,pest or weed control at 80 g/ha,MATIN [2]; dosage 80 g/ha,100%
same,pest or weed control at 80 g/ha,"PHBPU [3]; Ipomoea purpurea, 504 h",100%
same,pest or weed control at 20 g/ha,"AMARE; Amaranthus retroflexus, 504 h, 20 g/ha, scored visually after 3 weeks vs untreated controls, 100% = plants have died, 0% = like control plants",100%
same,pest or weed control at 80 g/ha,"AMARE; Amaranthus retroflexus, 504 h, 80 g/ha, scored visually after 3 weeks vs untreated controls, 100% = plants have died, 0% = like control plants",100%
same,pest or weed control at 5 g/ha,PHBPU [4]; dosage 5 g/ha,90%
same,pest or weed control at 20 g/ha,PHBPU [4]; dosage 20 g/ha,100%
same,pest or weed control at 80 g/ha,"ECHCG [5]; Echinochloa crus-galli, 504 h",90%
same,pest or weed control at 5 g/ha,ABUTH [6]; dosage 5 g/ha,90%
same,pest or weed control at 20 g/ha,ABUTH [6]; dosage 20 g/ha,100%
same,pest or weed control at 20 g/ha,"DIGSA [7]; Digitaria sanguinalis, 504 h, dosage 20 g/ha",100%
same,pest or weed control at 80 g/ha,"DIGSA [7]; Digitaria sanguinalis, 504 h, dosage 80 g/ha",100%
same,pest or weed control at 80 g/ha,ABUTH [8]; [15],100%
same,pest or weed control at 20 g/ha,"ABUTH [8]; dosage 20 g/ha, scored visually after 3 weeks vs untreated controls, 100% = plants have died, 0% = like control plants, read-out: Pre-emergence action against ABUTH (herbicidal activity in percent)",100%
same,pest or weed control at 5 g/ha,DIGSA [9]; 5 g/ha,100%
same,pest or weed control at 20 g/ha,DIGSA [9]; 20 g/ha,100%
same,pest or weed control at 20 g/ha,"VERPE [10]; Veronica persica, 504 h",80%
same,pest or weed control at 5 g/ha,MATIN [11]; dosage 5 g/ha,80%
same,pest or weed control at 20 g/ha,MATIN [11]; dosage 20 g/ha,90%
same,pest or weed control at 20 g/ha,"VIOTR [12]; Viola tricolor, 504 h, dosage 20 g/ha",100%
same,pest or weed control at 80 g/ha,"VIOTR [12]; Viola tricolor, 504 h, dosage 80 g/ha",100%
same,pest or weed control at 20 g/ha,VIOTR [13],80%
same,pest or weed control at 80 g/ha,"VERPE [14]; Veronica persica, 504 h, dosage 80 g/ha",90%
CCn1nnnc1NC(=O)c1ccc(C(F)(F)F)c(C(=O)NCC2CCCO2)c1C (centres unmarked) [Example 2-37],Post-emergence action against ECHCG in %,ECHCG [1],80%
same,Pre-emergence action against SETVI in %,SETVI; dosage 80 g/ha,100%
same,Pre-emergence action against PHBPU in %,PHBPU [3],80%
same,Pre-emergence action against AMARE in %,"AMARE; 20 g/ha, scored visually after 3 weeks vs untreated controls, 100% = plants have died, 0% = like control plants",90%
same,Pre-emergence action against AMARE in %,AMARE; [15],100%
same,Pre-emergence action against ECHCG in %,ECHCG [5],80%
same,Pre-emergence action against DIGSA in %,DIGSA [7]; dosage 80 g/ha,100%
same,Post-emergence action against VERPE in %,VERPE [10],80%
same,Pre-emergence action against VIOTR in %,VIOTR [12]; dosage 80 g/ha,100%
same,Pre-emergence action against ALOMY (herbicidal activity),ALOMY,90%
same,Pre-emergence action against VERPE in %,VERPE [14]; dosage 20 g/ha,80%
same,Pre-emergence action against VERPE in %,VERPE [14]; dosage 80 g/ha,80%
